Like-named read-outs stand apart in the source and are kept apart here.
Experiments:
[1] = tested on: Leishmania infantum MHOM/MA(BE)/67/ITMAP263 intracellular amastigotes; settings: for potency against L. inf. in words: intracellular amastigotes in PMM
[2] = tested on: Leishmania infantum MHOM/MA(BE)/67/ITMAP263 intracellular amastigotes; assay: microbe, parasite or virus in culture; settings: Macrophage, in Mus musculus
[3] = tested on: Leishmania infantum (MHOM/MA/67/ITMAP-263) intracellular amastigotes in THP-1; assay: microbe, parasite or virus in culture
[4] = tested on: primary peritoneal mouse macrophages (PMM); settings: PMM IC50 / L. infantum IC50
[5] = in vitro; settings: Swiss, mouse
[6] = in vitro; settings: human, microsomes
[7] = in vitro; settings: mouse, microsomes; for microsomal CLint at 0.5 μM: pH 7.4, MLM CLint, mouse liver microsomes; for microsomal CLint at 0.5 h, 0.5 µM: intrinsic in vitro clearance, liver microsomes
[8] = physchem; settings: HPLC, Ascentis Express RP Amide column
[9] = in vitro; settings: human
[10] = tested on: Trypanosoma cruzi, Tulahuen CL2, beta-galactosidase strain; assay: microbe, parasite or virus in culture
[11] = tested on: primary peritoneal mouse macrophages (PMM); assay: cells; settings: Macrophage
[12] = in vitro; settings: human; for IC50 at 120 h: PMA-differentiated THP-1 cells
[13] = in vitro; settings: human, HFF-1 cells
[14] = in vitro; settings: human, HepG2 cells
[15] = in vitro; settings: PAMPA
[16] = reference drug in the intracellular Leishmania amastigote assay
[17] = read-out: L. inf. pIC50, intracellular amastigotes in PMM (converted), geometric mean of a minimum of two experiments ± standard error
[18] = THP-1, 120 h, read-out: Intracellular activity pIC50 L. inf. in THP-1 (converted)
[19] = pH 7.4, HLM CLint, human liver microsomes
[20] = read-out: L. Inf. pIC50, from L. infantum intracellular amastigote IC50 (converted)
[21] = read-out: L. infantum MHOM/MA(BE)/67/ITMAP263 intracellular amastigotes IC50
[22] = MRC5, read-out: T. cruzi Tulahuen C4 (LacZ) IC50
[23] = read-out: PMM pIC50 (converted)
[24] = pH 7.4, Microsome Clint,u Human, Table 2, intrinsic in vitro clearance, liver microsomes
[25] = pH 7.4, elog D, HPLC measured log D, pH 7.4
[26] = pH 7.4, Microsome Clint,u Mouse, Table 2
[27] = pH 7.4, Microsome Clint Human, intrinsic in vitro clearance, liver microsomes

Structure (SMILES) | IC50 [2, 17] [µM] | IC50 [3, 18] [µM] | SI (vs PMM) [4] | IC50 [5] [µM] | microsomal CLint at 0.5 μM [6, 19] [µL/min/mg] | microsomal CLint at 0.5 μM [7] [µL/min/mg] | chromatographic logD ([8]; pH 7.4, eLogD) | CC50 at 3 days [9] [µM] | IC50 [2, 20] [µM] | IC50 [2, 21] [µM] | IC50 [10, 22] [µM] | further results
CCCCCCCCCCCCCCCCOP(=O)([O-])OCC[N+](C)(C)C [Miltefosine, reference compound] | 8.71 | 1.95 |  |  |  |  |  |  |  |  |  | IC50 [1, 16]: ~5 µM; IC50 [2, 16]: 5 to 10 µM
COc1ccc(OC)c(S(=O)(=O)N(Cc2ccccc2)C2CCNCC2)c1 [DNDI0003366094] |  |  | 2 | 45.2 | 100 | 23 | 3.1 | 42.2 | 27.5 | 27.8 | 28.9 | 
CC(=O)Nc1ccc(S(=O)(=O)N(CCN(C)C)Cc2ccccc2)cc1 [DNDI0003366091] |  |  | 1 | > 64 | 95 | 42 | 3 | > 64 | > 64 | > 64 | > 64 | 
COc1ccc(C#N)cc1S(=O)(=O)N(Cc1ccccc1)Cc1cnc(C(F)(F)F)nc1 [Compound 49] | 3.89 | 61.7 |  |  |  |  |  |  |  |  |  | IC50 [11, 23]: > 64.6 µM; microsomal CLint at 0.5 μM [6, 24]: 100 µL/min/mg; chromatographic logD [8, 25]: 3.8; IC50 at 120 h [12]: > 64.6 µM
COc1ccc(C(=O)N2CCOCC2)cc1S(=O)(=O)N(Cc1ccc(C(F)(F)F)nc1)CC(C)(C)C [Compound 48] | 45.7 | > 64.6 |  |  |  |  |  |  |  |  |  | potency against L. inf. in words [1]: inactive; IC50 [11, 23]: > 64.6 µM; microsomal CLint at 0.5 h, 0.5 µM [6, 24]: 143 µL/min/mg; microsomal CLint at 0.5 h, 0.5 µM [7, 26]: 379 µL/min/mg; IC50 at 120 h [12]: > 64.6 µM
COCCN(C(C)=O)c1ccc(S(=O)(=O)N(CCOC)Cc2ccccc2)cc1 [DNDI0003366101] |  |  | 1 | > 64 | 73 | 227 | 3.1 | > 64 | > 64 | > 64 | > 64 | 
COc1ccc(S(C)(=O)=O)cc1S(=O)(=O)N(Cc1ccc(F)cc1)Cc1ccc(F)cc1 [Compound 26] | 1.29 | 5.89 |  |  |  |  |  |  |  |  |  | IC50 [11, 23]: > 64.6 µM; microsomal CLint at 0.5 μM [6, 27]: 296 µL/min/mg; chromatographic logD [8, 25]: 3.9; IC50 at 120 h [12]: > 64.6 µM
COCCN(Cc1ccccc1)S(=O)(=O)c1ccc(NC(C)=O)cc1 [DNDI0003366100] |  |  | 1 | > 64 | 424 | 29 | 3.2 | > 64 | > 64 | > 64 | > 64 | 
COc1ccc(C(=O)N2CCOCC2)cc1S(=O)(=O)N(Cc1ccccc1)CC(C)(C)C [Compound 45] | 1 | 27.5 |  |  |  |  |  |  |  |  |  | IC50 [11, 23]: > 64.6 µM; microsomal CLint at 0.5 h, 0.5 µM [6, 24]: 1600 µL/min/mg; microsomal CLint at 0.5 h, 0.5 µM [7, 26]: 2580 µL/min/mg; chromatographic logD [8, 25]: 3.8; IC50 at 120 h [12]: > 64.6 µM
COc1ccc(Cl)cc1S(=O)(=O)N(CCN(C)C)Cc1ccccc1 [DNDI0003366090] |  |  | 7 | 45.2 | 1190 | 120 | 4 | 26.7 | 6.17 | 6.14 | 32.7 | 
CCN(Cc1ccccc1)S(=O)(=O)c1cc(F)ccc1F [DNDI0003364474] |  |  | 2 | > 64 | 205 | 705 | 4.2 | 45.2 | 33.9 | 33.9 | 30.1 | 
CCN(Cc1ccccn1)S(=O)(=O)c1cc(OC)ccc1OC [DNDI0003366095] |  |  | 1 | > 64 | 118 | 2190 | 2.7 | > 64 | 43.7 | 44.1 | > 64 | 
C[C@@H]1[C@H](O)[C@@H](C)/C=C/C=C/C=C/C=C/C=C/C=C/C=C/[C@H](O[C@@H]2O[C@H](C)[C@@H](O)[C@H](N)[C@@H]2O)C[C@@H]2O[C@](O)(C[C@@H](O)C[C@@H](O)[C@H](O)CC[C@@H](O)C[C@@H](O)CC(=O)O[C@H]1C)C[C@H](O)[C@H]2C(=O)O [Amphotericin B, reference compound] |  | 1.95 |  |  |  |  |  |  |  |  |  | 
COCCOCN(Cc1ccccc1)S(=O)(=O)c1cc(OC)ccc1OC [DNDI0003425514] |  |  |  |  |  |  |  | > 64 | 6.17 |  |  | IC50 ([11]; read-out: PMM IC50 (uM)): > 64 µM; chromatographic logD ([8]; pH 7.4, eLogD, experimental): 3.4; CC50 at 120 h ([12]; THP-1 cells differentiated with PMA): > 64 µM; CC50 [13]: > 64 µM; CC50 [14]: > 64 µM; Papp [15]: 12.8 ×10⁻⁶ cm/s; IC50 ([2]; read-out: L. infantum MHOM/MA(BE)/67/ITMAP263 intracellular amastigotes IC50 (uM), intracellular amastigotes): 6.11 µM; IC50 ([3]; THP-1, read-out: L. infantum MHOM/MA/67/ITMAP263 intracellular amastigotes THP-1 cells IC50 (uM)): > 64 µM; IC50 ([10]; MRC5, read-out: T. cruzi Tulahuen C4 (LacZ) IC50 (uM)): > 64 µM
COCCOCN1CNc2cc(OC)c(S(=O)(=O)N(Cc3ccccc3)Cc3ccccc3)cc2S1(=O)=O [Compound 29] | 0.661 | 14.8 |  |  |  |  |  |  |  |  |  | potency against L. inf. in words [1]: sub-micromolar potency; IC50 [11, 23]: > 64.6 µM; microsomal CLint at 0.5 h, 0.5 µM [6, 27]: 518 µL/min/mg; microsomal CLint at 0.5 h, 0.5 µM ([7]; pH 7.4, Microsome Clint Mouse): 1370 µL/min/mg; chromatographic logD [8, 25]: 4; IC50 at 120 h [12]: 39.8 µM
O=S(=O)(c1ccccc1OC(F)(F)F)N(Cc1ccccc1)Cc1ccccc1 [DNDI0003366074] |  |  | 30 | 32 | 93 | 689 |  | > 64 | 1.07 | 1.08 | 6.3 | 
COc1ccc(Cl)cc1S(=O)(=O)NCCN(C)C [DNDI0003366089] |  |  | 1 | > 64 | 33 |  | 2.1 | > 64 | > 64 | > 64 | > 64 | 
CCN(Cc1ccccc1)S(=O)(=O)c1ccccc1Br [DNDI0003365405] |  |  | 2 | > 64 | 88 | 235 | 4.2 | > 64 | 33.9 | 33.9 | 13.8 | 

From paper PMC8126888 (RSC Medicinal Chemistry, 2020)
